We go through 36 compounds from patent US8674113B2, “Compounds” (Boehringer Ingelheim International GmbH, priority 2010, dated 2014).

The target in experiment [1] is recombinant human mPGES-1 (Homo sapiens (Human), UniProt O14684). Description: mPGES-1 enzyme assay (HTRF detection of PGE2). In kind it is biochemical. In outline: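 Microsomes from E. coli expressing recombinant human mPGES-1 (~0.5 μg protein/well) in 0.1 M phosphate pH 7.4 with 2.5 mM GSH, pre-incubated with compound 25 min at room temperature. PGH2 (2 μM final) added, reaction stopped with FeCl2 after 60 s; PGE2 quantified by HTRF (665/620 ratio) against a calibration curve, IC50 by nonlinear regression after background subtraction.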

Experiment [2] has as its target mPGES-1 in A549 cells (Homo sapiens (Human), UniProt O14684). Description: A549 cell-based assay (PGE2 formation, 50% human serum). In outline:
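PGE2 release, read by HTRF and set to 100% for vehicle, gave IC50s from 6-8 point titrations. Human A549 cells were exposed to compound for 20-24 h in medium with 50% human serum, with IL-1β (5 ng/ml) and arachidonic acid (10 nM) as stimulus.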

The mark [3] stands for this setting: recombinant human mPGES-1 microsomes, PGH2 2 μM, 60 seconds, read-out: mPGES-1 inhibitory effect IC50 in the enzyme assay.
Where [4] appears, read: IL-1β 5 ng/ml, 10 nM arachidonic acid, 20-24 h, read-out: mPGES-1 inhibitory effect IC50 in the cell assay.

The structures appear in SMILES notation. Read-outs that look alike come from different tables or passages of the source.

recombinant human mPGES-1, sequence (O14684 whole entry): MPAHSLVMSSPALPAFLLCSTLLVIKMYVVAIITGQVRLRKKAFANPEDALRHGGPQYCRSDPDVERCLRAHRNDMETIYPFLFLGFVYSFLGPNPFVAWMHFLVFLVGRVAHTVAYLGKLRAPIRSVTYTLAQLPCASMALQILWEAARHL
mPGES-1 in A549 cells, sequence (O14684 whole entry): as above

Take `Cn1c(Nc2c(Cl)ccc(CNC(=O)C(C)(C)C)c2Cl)nc2cc(C(=O)Nc3ccc(OC(F)(F)F)cc3)c(N3CC[C@@H](F)C3)cc21` [Example 241]: the IC50 is 3.5 nM in experiment [1] (setting [3]) and < 1 nM in experiment [2] (setting [4]).
The like results for `Cn1c(Nc2c(Cl)ccc(CNC(=O)C(C)(C)C)c2Cl)nc2cc(C(=O)N[C@H]3CC[C@H](C(F)(F)F)CC3)c(NCCCO)cc21` [Example 85] were, in that order, 15 nM and 86 nM.
For `Cn1c(Nc2c(Cl)ccc(CNC(=O)C(C)(C)C)c2Cl)nc2cc(C(=O)N[C@H]3CC[C@H](C(F)(F)F)CC3)c(N3CC4CCC(C3)O4)cc21` [Example 134], in that order: 2 nM and < 1 nM.
For `Cn1c(Nc2c(Cl)ccc(CNC(=O)C(C)(C)C)c2Cl)nc2cc(C(=O)N[C@H]3CC[C@H](C(F)(F)F)CC3)c(N3CCCC(C(F)(F)F)C3)cc21` (stereo partly drawn) [Example 89], in that order: 2 nM and 1 nM.
Regarding `Cn1c(Nc2cc(CNC(=O)C(C)(C)C)ccc2Cl)nc2cc(C(=O)Nc3ccc(Br)cc3)c(OCC(F)F)cc21` [[drawing 48] of WO 2010/100249, reference compound], the IC50 in experiment [1] (Table C comparison of selected benzimidazoles, read-out: Enzym IC50) turned out to be 3 nM; in experiment [2] (Table C comparison of selected benzimidazoles, read-out: Cell IC50) it was 10 nM.
With `CN(CC1(C)CC1)c1cc2c(cc1C(=O)N[C@H]1CC[C@H](C(F)(F)F)CC1)nc(Nc1c(Cl)ccc(CNC(=O)C(C)(C)C)c1Cl)n2C` [Example 107], the values for the IC50 in experiment [1] (setting [3]) and in experiment [2] (setting [4]) were 1 nM and < 1 nM, respectively.
For `Cn1c(Nc2c(Cl)ccc(CNC(=O)C(C)(C)C)c2Cl)nc2cc(C(=O)N[C@H]3CC[C@H](C(F)(F)F)CC3)c(N3CCC(O)(C(F)(F)F)CC3)cc21` [Example 82], in that order: 3 nM and 1 nM.
The like results for `Cn1c(Nc2c(Cl)ccc(CNC(=O)C(C)(C)C)c2Cl)nc2cc(C(=O)NCC(F)(F)F)c(N3CCc4ccc(Cl)cc4C3)cc21` [Example 32] were, in that order, 2 nM and 6 nM.
On to `Cn1c(Nc2c(Cl)ccc(CNC(=O)C(C)(C)C)c2Cl)nc2cc(C(=O)N[C@H]3CC[C@H](C(F)(F)F)CC3)c(N3CC[C@@H](F)C3)cc21` [Example 19], for which the IC50 in experiment [1] (setting [3]) stood at 3 nM; in experiment [2] (setting [4]) it was 1 nM.
For `Cn1c(Nc2c(Cl)ccc(CNC(=O)[C@@](C)(O)C(F)(F)F)c2Cl)nc2cc(C(=O)Nc3ccc(F)c(Cl)c3)c(N3CCC(C(F)(F)F)CC3)cc21` [Example 233], in that order: 3.9 nM and 1 nM.
The like results for `Cn1c(Nc2c(Cl)ccc(CNC(=O)C(C)(C)F)c2Cl)nc2cc(C(=O)Nc3ccc(F)c(Cl)c3)c(N3CC[C@@H](F)C3)cc21` [Example 235] were, in that order, 3.9 nM and 4.4 nM.
The like results for `Cn1c(Nc2c(Cl)ccc(CNC(=O)C3(C)CC3)c2Cl)nc2cc(C(=O)Nc3ccc(OC(F)(F)F)cc3)c(N3CC[C@@H](F)C3)cc21` [Example 156] were, in that order, 2 nM and 2 nM.
As to `Cn1c(Nc2c(Cl)ccc(CNC(=O)C(C)(C)F)c2Cl)nc2cc(C(=O)Nc3ccc(OC(F)(F)F)cc3)c(N3CCC(C(F)(F)F)CC3)cc21` [Example 237], the IC50 was 1.8 nM in experiment [1] (setting [3]) and < 1 nM in experiment [2] (setting [4]).
For `Cn1c(Nc2c(Cl)ccc(CNC(=O)C(C)(C)C)c2Cl)nc2cc(C(=O)Nc3ccc(F)c(Cl)c3)c(N3CC4CC4C3)cc21` (stereo not drawn) [Example 65], in that order: 1 nM and 1 nM.
The like results for `Cn1c(Nc2c(Cl)ccc(CNC(=O)C(C)(C)C)c2Cl)nc2cc(C(=O)N[C@H]3CC[C@H](C(F)(F)F)CC3)c(N3C4CCC3CC4)cc21` [Example 92] were, in that order, 2 nM and 1.4 nM.
For `Cn1c(Nc2c(Cl)ccc(CNC(=O)C(C)(C)F)c2Cl)nc2cc(C(=O)NC3CC(F)(F)C3)c(N3CCC(C(F)(F)F)CC3)cc21` [Example 256], in that order: 3.9 nM and 1 nM.
Take `Cn1c(Nc2c(Cl)ccc(CNC(=O)C(C)(C)C)c2Cl)nc2cc(C(=O)NCC(F)(F)F)c(N3CCC(C(F)(F)F)CC3)cc21` [Example 28]: the IC50 in experiment [1] (setting [3]) was found to be 2 nM; in experiment [2] (setting [4]), 1.5 nM.
For `Cn1c(Nc2c(Cl)ccc(CNC(=O)C(C)(C)C)c2Cl)nc2cc(C(=O)N[C@H]3CC[C@H](C(F)(F)F)CC3)c(N3CC4CCCC4C3)cc21` (stereo partly drawn) [Example 101], in that order: 2 nM and 1.5 nM.
As for `CC(C)(C)C(=O)NCc1ccc(F)c(Nc2nc3cc(C(=O)N[C@H]4CC[C@H](C(F)(F)F)CC4)c(N4CCC(F)CC4)cc3[nH]2)c1F` [Example 5, N-(trans-4-Trifluoromethyl-cyclohexyl)-2-{2,6-difluoro-3[(2,2-dimethyl-propionylamino)-methyl]-phenylamino}-6-[4-fluoro-piperidinyl]-1H-benzimidazole-5-carboxylic acid amide], the IC50 turned out to be 2 nM in experiment [1] (setting [3]) and 39 nM in experiment [2] (setting [4]).
The like results for `Cn1c(Nc2c(Cl)ccc(CNC(=O)C(C)(C)C)c2Cl)nc2cc(C(=O)NCCCC(F)(F)F)c(N3CCC(F)(F)C3)cc21` [Example 46] were, in that order, 3 nM and 7 nM.
For `Cn1c(Nc2c(Cl)ccc(CNC(=O)C(C)(C)C(F)(F)F)c2Cl)nc2cc(C(=O)N[C@H]3CC[C@H](C(F)(F)F)CC3)c(N3CC[C@@H](F)C3)cc21` [Example 128], in that order: 2 nM and 1 nM.
`Cn1c(Nc2c(Cl)ccc(CNC(=O)C(C)(C)C)c2Cl)nc2cc(C(=O)Nc3ccc(OC(F)(F)F)cc3)c(N3CCCC(C(F)(F)F)C3)cc21` (stereo not drawn) [Example 136]: the IC50 in experiment [1] (setting [3]) is 3 nM; in experiment [2] (setting [4]), 1 nM.
For `CN(CC(N)=O)c1cc2c(cc1C(=O)N[C@H]1CC[C@H](C(F)(F)F)CC1)nc(Nc1c(Cl)ccc(CNC(=O)C(C)(C)F)c1Cl)n2C` [Example 111], in that order: 2 nM and 22 nM.
The like results for `Cc1c(N2CC3CC3C2)c(C(=O)N[C@H]2CC[C@H](C(F)(F)F)CC2)cc2nc(Nc3c(Cl)ccc(CNC(=O)C(C)(C)C)c3Cl)n(C)c12` (stereo partly drawn) [Example 144, N-(trans-4-Trifluoromethyl-cyclohexyl)-2-{2,6-dichloro-3-[(2,2-dimethyl-propionylamino)-methyl]-phenylamino}-6-[3-aza-bicyclo[3.1.0]hex-3-yl]-1,7-dimethyl-1H-benzimidazole-5-carboxylic acid amide] were, in that order, 5 nM and 1 nM.
The like results for `CN(c1cc2c(cc1C(=O)NCC(F)(F)F)nc(Nc1c(Cl)ccc(CNC(=O)C(C)(C)C)c1Cl)n2C)C1CC1` [Example 23] were, in that order, 4 nM and 1 nM.
For `Cn1c(Nc2c(Cl)ccc(CNC(=O)C(C)(C)C)c2Cl)nc2cc(C(=O)N[C@H]3CC[C@H](C(F)(F)F)CC3)c(N3CCN(CC(F)(F)F)CC3)cc21` [Example 132], the IC50 in experiment [1] (setting [3]) turned out to be 5 nM; in experiment [2] (setting [4]), 1.5 nM.
The like results for `Cn1c(Nc2c(Cl)ccc(CNC(=O)C(C)(C)C)c2Cl)nc2cc(C(=O)N[C@H]3CC[C@H](C(F)(F)F)CC3)c(N3CC[C@H](F)C3)cc21` [Example 18] were, in that order, 3 nM and 4 nM.
Turning to `Cn1c(Nc2c(Cl)ccc(CNC(=O)C(C)(C)F)c2Cl)nc2cc(C(=O)Nc3ccc(OC(F)(F)F)cc3)c(N3CCC(F)(F)CC3)cc21` [Example 140], the IC50 is 2 nM in experiment [1] (setting [3]) and 5 nM in experiment [2] (setting [4]).
`CN(c1ccc(F)c(Cl)c1)c1cc2c(cc1C(=O)NCC(F)(F)F)nc(Nc1c(Cl)ccc(CNC(=O)C(C)(C)C)c1Cl)n2C` [Example 31]: the IC50 was 4 nM in experiment [1] (setting [3]) and 33 nM in experiment [2] (setting [4]).
The like results for `Cn1c(Nc2c(Cl)ccc(CNC(=O)C(C)(C)C)c2Cl)nc2cc(C(=O)N[C@H]3CC[C@H](C(F)(F)F)CC3)c(N3C[C@@H]4C[C@H]3CO4)cc21` [Example 129] were, in that order, 3 nM and 5 nM.
For `Cn1c(Nc2c(Cl)ccc(CNC(=O)C(C)(C)C)c2Cl)nc2cc(C(=O)NC3CCN(CC(F)(F)F)CC3)c(N3CCC(C(F)(F)F)CC3)cc21` [Example 59], in that order: 4 nM and < 1 nM.
For `Cn1c(Nc2c(Cl)ccc(CNC(=O)C(C)(C)C)c2Cl)nc2cc(C(=O)NCC(F)(F)F)c(N3CCC(F)CC3)cc21` [Example 10], in that order: 2 nM and 1 nM.
With `Cn1c(Nc2c(Cl)ccc(CNC(=O)C(C)(C)C)c2Cl)nc2cc(C(=O)Nc3ccc(OC(F)(F)F)cc3)c(N3CCC(F)(F)C3)cc21` [Example 35, N-(4-Trifluoromethoxy-phenyl)-2-{2,6-dichloro-3-[(2,2-dimethyl-propionylamino)-methyl]-phenylamino}-6-[3,3-difluoro-pyrrolidinyl]-1-methyl-1H-benzimidazole-5-carboxylic acid amide], the values for the IC50 in experiment [1] (setting [3]) and in experiment [2] (setting [4]) were 2 nM and 1 nM, respectively.
For `Cn1c(Nc2c(Cl)ccc(CNC(=O)C(C)(C)F)c2Cl)nc2cc(C(=O)N[C@H]3CC[C@H](C(F)(F)F)CC3)c(N3CCC(C(F)(F)F)CC3)cc21` [Example 249], in that order: 4.2 nM and 6 nM.
On to `Cn1c(Nc2c(Cl)ccc(CNC(=O)C(C)(C)C)c2Cl)nc2cc(C(=O)Nc3nnc(C(C)(C)C)s3)c(N3CCC(C(F)(F)F)CC3)cc21` [Example 162], for which the figures for the IC50 in experiment [1] (setting [3]) and in experiment [2] (setting [4]) were 3 nM and 2 nM, respectively.
For `Cn1c(Nc2c(Cl)ccc(CNC(=O)c3ccc(N)cc3Cl)c2Cl)nc2cc(C(=O)NCCC(F)(F)F)c(N3CCC(C(F)(F)F)CC3)cc21` [Example 177], the figures for the IC50 in experiment [1] (setting [3]) and in experiment [2] (setting [4]) were 2 nM and 3 nM, respectively.

One may read the IC50 as the concentration needed to halve the response being measured.
